Entries after “also recorded” stand apart in the source; their conditions may differ. Where two headings read alike, the source gives them in different places. Each block holds one molecule with its values, some of them ahead of it.
Legend:
plasma renin = conditions: aliskiren 160-640 mg; unstimulated plasma renin 10-20 pg/ml; cited from earlier work
plasma renin activity [1] = test: Trough plasma renin activity (PRA) after four weeks of treatment; conditions: for Effect of therapy on PRA: trough PRA after four weeks of treatment; for PRA Percentage Change / PRA on treatment (trough): Losartan 100 mg, after four weeks, median (interquartile range)
plasma renin activity [2] = target: T1, plasma renin activity (Homo sapiens, UniProt P00797); test: as above; conditions: after four weeks, median (interquartile range)
T1 sequence (P00797 67-406): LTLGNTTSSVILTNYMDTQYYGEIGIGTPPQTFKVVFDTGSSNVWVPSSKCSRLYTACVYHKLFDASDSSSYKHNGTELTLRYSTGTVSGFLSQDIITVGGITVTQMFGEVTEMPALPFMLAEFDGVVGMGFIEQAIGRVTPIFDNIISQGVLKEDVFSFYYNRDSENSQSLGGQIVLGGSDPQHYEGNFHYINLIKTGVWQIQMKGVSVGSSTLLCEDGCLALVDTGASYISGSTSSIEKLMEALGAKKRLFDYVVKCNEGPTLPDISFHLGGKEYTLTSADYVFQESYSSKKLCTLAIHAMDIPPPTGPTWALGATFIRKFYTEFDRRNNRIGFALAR

clinical = conditions: human, plasma, Plasma aliskiren on treatment (trough), after four weeks, median (interquartile range)
hypertensive patients = test: Clinic blood pressure, change from baseline with study treatment, by renin −5312 C/T genotype; assay type: in vivo, human; conditions: for BP lowering by −5312 C/T genotype: clinic and ambulatory BP, T allele carriers versus CC homozygotes
Description: Tables 2 and 3 show baseline clinic and ambulatory blood pressures, and the changes from baseline with study treatment.

[3] = for Plasma aliskiren on treatment (trough): Aliskiren 300 mg, after four weeks, median (interquartile range)
[4] = Ren CC homozygotes, Aliskiren 37.5 mg
[5] = Ren CC homozygotes, Aliskiren 75 mg
[6] = Ren CC homozygotes, Aliskiren 150 mg
[7] = Ren CC homozygotes, Aliskiren 300 mg
[8] = Ren T allele carriers, Aliskiren 37.5 mg
[9] = Ren T allele carriers, Aliskiren 75 mg
[10] = Ren T allele carriers, Aliskiren 150 mg
[11] = Ren T allele carriers, Aliskiren 300 mg

- PRA Percentage Change (plasma renin activity [2]; [4]): −50.0 (−4.5, −62.7) %
- PRA on treatment (trough) (plasma renin activity [2]; [4]): 0.32 (0.12, 0.77) ng/ml/h
- PRA Percentage Change (plasma renin activity [2]; [5]): −61.7 (−32.7, −82.1) %
- PRA on treatment (trough) (plasma renin activity [2]; [5]): 0.16 (0.09, 0.46) ng/ml/h
- PRA Percentage Change (plasma renin activity [2]; [6]): −77.8 (−70.6, −84.8) %
- PRA on treatment (trough) (plasma renin activity [2]; [6]): 0.10 (0.06, 0.31) ng/ml/h
- PRA Percentage Change (plasma renin activity [2]; [7]): −82.5 (−69.9, −86.7) %
- PRA on treatment (trough) (plasma renin activity [2]; [7]): 0.17 (0.06, 0.42) ng/ml/h
- PRA Percentage Change (plasma renin activity [2]; [8]): −63.8 (−11.2, −77.9) %
- PRA on treatment (trough) (plasma renin activity [2]; [8]): 0.17 (0.06, 0.89) ng/ml/h
- PRA Percentage Change (plasma renin activity [2]; [9]): −54.3 (−44.4, −81.5) %
- PRA on treatment (trough) (plasma renin activity [2]; [9]): 0.42 (0.20, 0.59) ng/ml/h
- PRA Percentage Change (plasma renin activity [2]; [10]): −75.7 (−67.4, −82.1) %
- PRA on treatment (trough) (plasma renin activity [2]; [10]): 0.17 (0.12, 0.47) ng/ml/h
- PRA Percentage Change (plasma renin activity [2]; [11]): −82.5 (−69.9, −86.7) %
- PRA on treatment (trough) (plasma renin activity [2]; [11]): 0.18 (0.06, 0.51) ng/ml/h
- concentration at 4 weeks (clinical; 37.5 mg, Ren CC homozygotes, Aliskiren 37.5 mg): 3.1 ng/mL
- concentration at 4 weeks (clinical; 37.5 mg, Ren T allele carriers, Aliskiren 37.5 mg): 2.4 ng/mL
- concentration at 4 weeks (clinical; 75 mg, Ren CC homozygotes, Aliskiren 75 mg): 4.4 ng/mL
- concentration at 4 weeks (clinical; 75 mg, Ren T allele carriers, Aliskiren 75 mg): 3.9 ng/mL
- concentration at 4 weeks (clinical; 150 mg, Ren CC homozygotes, Aliskiren 150 mg): 11 ng/mL
- concentration at 4 weeks (clinical; 150 mg, Ren T allele carriers, Aliskiren 150 mg): 7.1 ng/mL
- concentration at 4 weeks (clinical; 300 mg, Ren CC homozygotes, Aliskiren 300 mg): 31.9 ng/mL
- concentration at 4 weeks (clinical; 300 mg, Ren T allele carriers, Aliskiren 300 mg): 20.5 ng/mL
- Plasma aliskiren on treatment (trough) ([3]; Ren CC homozygotes): 31.5 (70.3, 13.5) ng/ml
- Plasma aliskiren on treatment (trough) ([3]; Ren T allele carriers): 20.5 (41.0, 17.0) ng/ml
- Reduction of on treatment plasma aliskiren levels amongst T allele carriers ([3]; T allele carriers versus CC homozygotes, trough, after 4 weeks of treatment): 20%-30%
Structure (SMILES): COCCCOc1cc(C[C@@H](C[C@H](N)[C@@H](O)C[C@H](C(=O)NCC(C)(C)C(N)=O)C(C)C)C(C)C)ccc1OC [Aliskiren]
- Plasma renin levels in the presence of aliskiren (plasma renin): 300 to 600 pg/mL
- Effect of therapy on PRA (plasma renin activity [1]): suppressed PRA
- Relationship between dose and BP lowering (hypertensive patients; Aliskiren 37.5 to 300 mg daily): clear dose response relationship
- BP lowering by −5312 C/T genotype (hypertensive patients): BP lowering was greatest amongst CC homozygotes; also recorded: amongst CC homozygotes of the −5312 C/T variant

Structure (SMILES): CCCCc1nc(Cl)c(CO)n1Cc1ccc(-c2ccccc2-c2nn[nH]n2)cc1 [Losartan]
- PRA Percentage Change (plasma renin activity [1]; Ren CC homozygotes): 110.32 (15.4, 262.5) %
- PRA on treatment (trough) (plasma renin activity [1]; Ren CC homozygotes): 1.65 (0.60, 3.20) ng/ml/h
- PRA Percentage Change (plasma renin activity [1]; Ren T allele carriers): 97.6 (22.2, 363.8) %
- PRA on treatment (trough) (plasma renin activity [1]; Ren T allele carriers): 1.80 (0.65, 3.30) ng/ml/h
- Effect of therapy on PRA (plasma renin activity [1]): increased PRA levels
- BP lowering by −5312 C/T genotype (hypertensive patients): greatest with Losartan 100 mg daily amongst T allele carriers; also recorded: amongst T allele carriers of the −5312 C/T variant
